In brackets after ≈: the same amount, converted by molar mass.
Legend:
[1] = test system: Vibrio parahaemolyticus; assay: Antimicrobial activity against Vibrio parahaemolyticus QDIO-8 measured after 24 hrs by XTT assay; format: functional; conditions: QDIO-8, 24 h
[2] = test system: Staphylococcus aureus; assay: Antimicrobial activity against Staphylococcus aureus EMBLC-2 measured after 24 hrs by XTT assay; format: functional; conditions: EMBLC-2, 24 h
[3] = test system: Escherichia coli; assay: Antimicrobial activity against Escherichia coli EMBLC-1 measured after 24 hrs by XTT assay; format: functional; conditions: EMBLC-1, 24 h
[4] = test system: Alternaria brassicae; assay: Antimicrobial activity against Alternaria brassicae QDAU-1 measured after 24 hrs by XTT assay; format: functional; conditions: QDAU-1, 24 h
[5] = test system: Gaeumannomyces graminis; assay: Antimicrobial activity against Gaeumannomyces graminis QDAU-3 measured after 24 hrs; format: functional; conditions: QDAU-3, 24 h
[6] = Toxicity in brine shrimp larvae assessed as lethality measured after 24 hrs by macroscopic analysis; conditions: artemia salina; read-out: LD50
[7] = test system: Micrococcus luteus; assay: Antimicrobial activity against Micrococcus luteus QDIO-3 measured after 24 hrs by XTT assay; format: functional; conditions: QDIO-3, 24 h
[8] = test system: Vibrio harveyi; assay: Antimicrobial activity against Vibrio harveyi QDIO-7 measured after 24 hrs by XTT assay; format: functional; conditions: QDIO-7, 24 h
[9] = test system: Pseudomonas aeruginosa; assay: Antimicrobial activity against Pseudomonas aeruginosa QDIO-4 measured after 24 hrs by XTT assay; format: functional; conditions: QDIO-4, 24 h
[10] = test system: Aeromonas hydrophila; assay: Antimicrobial activity against Aeromonas hydrophila QDIO-1 measured after 24 hrs by XTT assay; format: functional; conditions: QDIO-1, 24 h
[11] = test system: Colletotrichum gloeosporioides; assay: Antimicrobial activity against Colletotrichum gloeosporioides QDAU-2 by XTT assay; format: functional
[12] = test system: Vibrio anguillarum; assay: Antimicrobial activity against Vibrio anguillarum QDIO-6 measured after 24 hrs by XTT assay; format: functional; conditions: QDIO-6, 24 h
[13] = test system: Edwardsiella tarda; assay: Antimicrobial activity against Edwardsiella tarda QDIO-2 measured after 24 hrs by XTT assay; format: functional; conditions: QDIO-2, 24 h
[14] = test system: Fusarium graminearum; assay: Antimicrobial activity against Fusarium graminearum QDAU-4 measured after 24 hrs by XTT assay; format: functional; conditions: QDAU-4, 24 h

Row | Structure (SMILES) | MIC [1] [µg/mL] | MIC [2] [µg/mL] | MIC [3] [µg/mL] | MIC [4] [µg/mL] | MIC [5] [µg/mL] | LC50 at 24 h [6] [µg/mL] | MIC [7] [µg/mL] | MIC [8] [µg/mL] | MIC [9] [µg/mL] | MIC [10] [µg/mL] | MIC [11] [µg/mL] | MIC [12] [µg/mL] | MIC [13] [µg/mL] | MIC [14] [µg/mL]
1 | C=C[C@]1(C)C=C2C(=O)C=C3C(C)(C)CCC[C@]3(O)[C@@]2(O)CC1 | > 32 | > 32 | 32 (≈ 106 µM) | 8 (≈ 26.5 µM) | 32 (≈ 106 µM) | > 10 | 4 (≈ 13.2 µM) | > 32 | 32 (≈ 106 µM) | > 32 | > 32 | > 32 | > 32 | 2 (≈ 6.61 µM)
2 | C=C[C@@]1(C)CCc2c3c(cc(O)c2[C@@H]1O)C(C)(C)[C@H](O)CC3 | 32 (≈ 106 µM) | > 32 | 32 (≈ 106 µM) | 32 (≈ 106 µM) | 32 (≈ 106 µM) | > 10 | 16 (≈ 52.9 µM) | > 32 | 4 (≈ 13.2 µM) | > 32 | 32 (≈ 106 µM) | 32 (≈ 106 µM) | > 32 | 4 (≈ 13.2 µM)
3 | C=C[C@@]1(C)CCc2c(c(O)cc3c2CCCC3(C)C)C1 | 4 (≈ 14.8 µM) | 8 (≈ 29.6 µM) | > 32 | > 32 | 8 (≈ 29.6 µM) | > 10 | > 32 | > 32 | > 32 | > 32 | > 32 | > 32 | 16 (≈ 59.2 µM) | > 32
4 | C[C@@H]1[C@H](O)[C@@H](C)/C=C/C=C/C=C/C=C/C=C/C=C/C=C/[C@H](O[C@@H]2O[C@H](C)[C@@H](O)[C@H](N)[C@@H]2O)C[C@@H]2O[C@](O)(C[C@@H](O)C[C@@H](O)[C@H](O)CC[C@@H](O)C[C@@H](O)CC(=O)O[C@H]1C)C[C@H](O)[C@H]2C(=O)O [AMPHOTERICIN B] | – | – | – | 32 (≈ 34.6 µM) | 64 (≈ 69.3 µM) | – | – | – | – | – | 32 (≈ 34.6 µM) | – | – | 8 (≈ 8.66 µM)
5 | O=C(N[C@H](CO)[C@H](O)c1ccc([N+](=O)[O-])cc1)C(Cl)Cl [CHLORAMPHENICOL] | 1 (≈ 3.09 µM) | 0.5 (≈ 1.55 µM) | 4 (≈ 12.4 µM) | – | – | – | 8 (≈ 24.8 µM) | 4 (≈ 12.4 µM) | 4 (≈ 12.4 µM) | 4 (≈ 12.4 µM) | – | 0.5 (≈ 1.55 µM) | 8 (≈ 24.8 µM) | –
6 | C=C[C@]1(C)C=C2C(=O)C=C3C(C)(C)CC[C@@H](O)[C@]3(O)[C@H]2CC1 | 32 (≈ 106 µM) | > 32 | > 32 | 32 (≈ 106 µM) | > 32 | > 10 | 16 (≈ 52.9 µM) | > 32 | > 32 | > 32 | > 32 | > 32 | > 32 | > 32
7 | C=C[C@@]1(C)CCc2c3c(cc(O)c2[C@H]1O)C(C)(C)[C@H](O)CC3 | > 32 | 32 (≈ 106 µM) | 16 (≈ 52.9 µM) | > 32 | 32 (≈ 106 µM) | > 10 | > 32 | 4 (≈ 13.2 µM) | > 32 | > 32 | 32 (≈ 106 µM) | > 32 | > 32 | > 32
8 | C=C[C@]1(C)C=C2C(=O)C=C3C(C)(C)[C@H](O)CC[C@]3(O)[C@H]2CC1 | 32 (≈ 106 µM) | 32 (≈ 106 µM) | > 32 | > 32 | > 32 | > 10 | > 32 | 8 (≈ 26.5 µM) | > 32 | 16 (≈ 52.9 µM) | > 32 | 32 (≈ 106 µM) | 4 (≈ 13.2 µM) | > 32

Source: ChEMBL document CHEMBL3853292, “Aspewentins D-H, 20-Nor-isopimarane Derivatives from the Deep Sea Sediment-Derived Fungus Aspergillus wentii SD-310” (J Nat Prod, 2016)
